Data from ChEMBL document CHEMBL1201862, “PubChem BioAssay data set” (2004).
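Growth conditions: 96-well plates. Treatment: test compound, 48 hours, 5 concentrations. Analysis: linear interpolation between bracketing concentrations; unreached endpoints set to highest concentration. GI50: concentration for 50% inhibition of growth.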 Activity calls are given as the source filed them. Rule as the data show it: active = GI50 up to about 1.1 µM and inactive = higher.

Columns and labels:
Test in all cases: NCI tumour cell line growth inhibition, 48 h
EKVX = system: EKVX
HCC 2998 = system: HCC 2998
HCT-15 = system: HCT-15
HL-60 = system: HL-60
HOP-62 = system: HOP-62
K562 = system: K562
Malme-3M = system: Malme-3M
NCI-H226 = system: NCI-H226
NCI-H23 = system: NCI-H23
RPMI-8226 = system: RPMI-8226
SF-268 = system: SF-268
SK-MEL-5 = system: SK-MEL-5
SN12C = system: SN12C
SNB-75 = system: SNB-75
SW-620 = system: SW-620
RXF 393 = system: RXF 393

Structure (SMILES)	GI50 (EKVX)	GI50 (HCC 2998)	GI50 (HCT-15)	GI50 (HL-60)	GI50 (HOP-62)	GI50 (K562)	GI50 (Malme-3M)	GI50 (NCI-H226)	GI50 (NCI-H23)	GI50 (RPMI-8226)	GI50 (SF-268)	GI50 (SK-MEL-5)	GI50 (SN12C)	GI50 (SNB-75)	GI50 (SW-620)	GI50 (RXF 393)
CC(=O)NC1=C(C)C(=O)c2c(nc3n2CCC3O)C1=N (stereo not drawn)	21.1 µM (inactive)	21.3 µM (inactive)	19.2 µM	4.49 µM (inactive)	38.8 µM (inactive)	8.67 µM (inactive)	6.41 µM (inactive)	17.4 µM (inactive)	14.8 µM (inactive)	> 100 µM (inactive)	10.3 µM (inactive)	13 µM (inactive)	6.19 µM (inactive)	26.2 µM (inactive)	13.3 µM (inactive)	–
CC(=O)NC(CCCCN(Cc1ccccc1)C(=O)NCCCl)C(=O)NCc1ccccc1 (stereo not drawn)	> 100 µM (inactive)	> 100 µM (inactive)	> 100 µM	> 100 µM (inactive)	> 100 µM (inactive)	> 100 µM (inactive)	> 100 µM (inactive)	> 100 µM (inactive)	> 100 µM (inactive)	> 100 µM (inactive)	> 100 µM (inactive)	–	> 100 µM (inactive)	> 100 µM (inactive)	> 100 µM (inactive)	–
Nc1ncnc2c1ncn2C1CC(OC2CCCCO2)C(CO)O1 (stereo not drawn)	67.5 µM (inactive)	> 100 µM (inactive)	> 100 µM	> 100 µM (inactive)	> 100 µM (inactive)	> 100 µM (inactive)	> 100 µM (inactive)	> 100 µM (inactive)	> 100 µM (inactive)	> 100 µM (inactive)	> 100 µM (inactive)	–	> 100 µM (inactive)	–	> 100 µM (inactive)	> 100 µM (inactive)
COC(=O)CC1N/C(=N\C#N)N(CCc2c[nH]c3ccccc23)C1=O (stereo not drawn)	83 µM (inactive)	34.5 µM (inactive)	> 100 µM	> 100 µM (inactive)	> 100 µM (inactive)	> 100 µM (inactive)	–	> 100 µM (inactive)	> 100 µM (inactive)	> 100 µM (inactive)	> 100 µM (inactive)	> 100 µM (inactive)	> 100 µM (inactive)	> 100 µM (inactive)	> 100 µM (inactive)	> 100 µM (inactive)
CCO/C([O-])=C(/C=O)[n+]1c(C)n(C)c2ccccc21	> 100 µM (inactive)	> 100 µM (inactive)	> 100 µM	> 100 µM (inactive)	> 100 µM (inactive)	> 100 µM (inactive)	> 100 µM (inactive)	> 100 µM (inactive)	> 100 µM (inactive)	> 100 µM (inactive)	> 100 µM (inactive)	> 100 µM (inactive)	–	> 100 µM (inactive)	> 100 µM (inactive)	> 100 µM (inactive)
